The values below come from patent US8722717B2, “3-triazolylphenyl-substituted sulphide derivatives as acaricides and insecticides” (Bayer CropScience AG, priority 2009, dated 2014).

One data set relates to Meloidogyne incognita. Briefly: Meloidogyne incognita test (MELGIN). In kind it is in vivo. The settings on record: application rate 20 ppm, lettuce in sand, after 14 days. Here is the method: Solvents: 80.0 parts by weight of acetone An appropriate preparation of active compound is prepared by mixing 1 part by weight of active compound with the stated amounts of solvent and emulsifier and diluting the concentrate with water to the desired concentration. Pots are filled with sand, solution of active compound, meloidogyne incognita egg/larvae suspension, and lettuce seeds. The lettuce seeds germinate and the plants develop. On the roots, the galls develop. After 14 days, the nematicidal effect is determined from the gall formation, in %. Here, 100% means that no galls were found; 0% means that the number of galls on the treated plants corresponds to that for the untreated control.

In data set [1] the test system is greenhouse red spidermite (Tetranychus urticae). Kind of data set: Tetranychus test; OP resistant (TETRUR spray treatment), Example 5. The settings on record: foliar, 144 h, spray on bean leaf discs, application rate 500 g/ha, after 6 days, read-out: effect (100% means that all of the mites have been killed). In kind it is in vivo. The procedure:
(§1) Solvents: 78.0 parts by weight of acetone • • 1.5 parts by weight of dimethylformamide Emulsifier: 0.5 part by weight of alkylaryl polyglycol ether An appropriate preparation of active compound is prepared by mixing 1 part by weight of active compound with the stated amounts of solvent and emulsifier and diluting the concentrate with emulsifier-containing water to the desired concentration. Leaf discs of bean (Phaseolus vulgaris) infested by all stages of the greenhouse red spidermite (Tetranychus urticae) are sprayed with a preparation of active compound at the desired concentration. After 6 days, the effect in % is determined. Here, 100% means that all of the mites have been killed; 0% means that no mites have been killed.

Data set [2] can be described thus: log P by HPLC/LC-MS on reversed-phase C18, formic acid method [b]. In kind it is physicochemical. The settings on record: reversed-phase C18 HPLC column; pH 2.7, 0.1% aqueous formic acid and acetonitrile; read-out: logP (HCOOH). The procedure: The log P values reported in the table above and in the preparation examples were determined in accordance with EEC Directive 79/831 Annex V.A8 by HPLC (High Performance Liquid Chromatography) on reversed-phase columns (C 18), with the following methods: ^[b] The determination is made by LC-MS in the acid range at pH 2.7 with 0.1% aqueous formic acid and acetonitrile (containing 0.1% formic acid) as eluents; linear gradient from 10% acetonitrile to 95% acetonitrile. Calibration took place with unbranched alkan-2-ones (having 3 to 16 carbon atoms) of known log P values (log P values determined from the retention times by linear interpolation between two successive alkanones).

The subject of data set [3] is greenhouse red spidermite (Tetranychus urticae). Kind of data set: Tetranychus test; OP resistant (TETRUR spray treatment), Example 7, comparison with prior art. The settings on record: 6 d. In kind it is in vivo. Here is the method:
as §1, with “the desired time,” for “6 days,”

In the case of `Cc1cc(Cl)c(-n2cnc(C(F)(F)F)n2)cc1[S+]([O-])CC#N` (centres unmarked) [I-A-11], the “nematicidal effect from gall formation (100% means that no galls were found)” value in the data set with Meloidogyne incognita was 90%. Besides, the pest or weed control at 500 g/ha in data set [1] was determined as 100%. The chromatographic logP in data set [2] was 2.17.

On to `Cc1cc(C)c(-n2cnc(C(F)(F)F)n2)cc1SCC(F)(F)F` [VI -297, reference compound], for which the “% effect after application” value is reported as 0% in data set [3] (4 g/ha) and 70% in data set [3] (20 g/ha).
